In brackets after ≈: the same amount, converted by molar mass.
Key:
Format in all cases: cell-based
Staph. aureus C-57 = assay: MIC by agar dilution, Staph. aureus C-57; settings: Staphylococcus aureus, C57, 17 h, Mueller-Hinton agar, read-out: Minimal Inhibitory Concentration (MIC)
Procedure, shortened: (§1)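 Agar dilution in Mueller-Hinton agar with two-fold compound dilutions. Each strain is inoculated at 10^6 CFU per ml and incubated at 35°-37° C. for 17±1 hours. Ceftazidime and cefotaxime serve as controls.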

Staph. aureus C-5113 = assay: MIC by agar dilution, Staph. aureus C-5113; settings: Staphylococcus aureus, C5113, 17 h, Mueller-Hinton agar, read-out: Minimal Inhibitory Concentration (MIC)
Procedure, shortened: as §1

E. coli No. 29 = assay: MIC by agar dilution, E. coli No. 29; settings: Escherichia coli, 17 h; E. coli No. 29; agar dilution, Mueller-Hinton agar; read-out: Minimal Inhibitory Concentration (MIC)
Procedure, shortened: as §1

[1] = tested on: S. epidermidis ATCC 12228; assay: MIC by agar dilution, S. epidermidis ATCC 12228; settings: Staphylococcus epidermidis, ATCC12228, 17 h; S. epidermidis ATCC 12228; agar dilution, Mueller-Hinton agar; read-out: Minimal Inhibitory Concentration (MIC)
Procedure, shortened: as §1

Ent. aerogenes IFO 12979 = assay: MIC by agar dilution, Ent. aerogenes IFO 12979; settings: Klebsiella aerogenes, IFO12979, 17 h, Mueller-Hinton agar, read-out: Minimal Inhibitory Concentration (MIC)
Procedure, shortened: as §1

Ps. aeruginosa DY-2 = assay: MIC by agar dilution, Ps. aeruginosa DY-2; settings: Pseudomonas aeruginosa, DY2, 17 h; Ps. aeruginosa DY-2; agar dilution, Mueller-Hinton agar; read-out: Minimal Inhibitory Concentration (MIC)
Procedure, shortened: as §1

Staph. aureus Smith = assay: MIC by agar dilution, Staph. aureus Smith; settings: Staphylococcus aureus, 17 h, Mueller-Hinton agar, read-out: Minimal Inhibitory Concentration (MIC)
Procedure, shortened: as §1

[2] = tested on: Ps. aeruginosa ATCC 10145; assay: MIC by agar dilution, Ps. aeruginosa ATCC 10145; settings: Pseudomonas aeruginosa, ATCC10145, 17 h, Mueller-Hinton agar, read-out: Minimal Inhibitory Concentration (MIC)
Procedure, shortened: as §1

Staph. aureus C-5216 = assay: MIC by agar dilution, Staph. aureus C-5216; settings: Staphylococcus aureus, C5216, 17 h, Mueller-Hinton agar, read-out: Minimal Inhibitory Concentration (MIC)
Procedure, shortened: as §1

[3] = tested on: Ps. aeruginosa NCTC 10490; assay: MIC by agar dilution, Ps. aeruginosa NCTC 10490; settings: Pseudomonas aeruginosa, NCTC10490, 17 h, Mueller-Hinton agar, read-out: Minimal Inhibitory Concentration (MIC)
Procedure, shortened: as §1

[4] = tested on: Ser. marcescens IFO 12648; assay: MIC by agar dilution, Ser. marcescens IFO 12648; settings: Serratia marcescens, IFO12648, 17 h; Ser. marcescens IFO 12648; agar dilution, Mueller-Hinton agar; read-out: Minimal Inhibitory Concentration (MIC)
Procedure, shortened: as §1

Staph. aureus ATCC 6538P = assay: MIC by agar dilution, Staph. aureus ATCC 6538P; settings: Staphylococcus aureus, ATCC6538P, 17 h; Staph. aureus ATCC 6538P; agar dilution, Mueller-Hinton agar; read-out: Minimal Inhibitory Concentration (MIC)
Procedure, shortened: as §1

Ent. cloacae IFO 13535 = assay: MIC by agar dilution, Ent. cloacae IFO 13535; settings: Enterobacter cloacae, IFO13535, 17 h; Ent. cloacae IFO 13535; agar dilution, Mueller-Hinton agar; read-out: Minimal Inhibitory Concentration (MIC)
Procedure, shortened: as §1

M. morganii DY-1 = assay: MIC by agar dilution, M. morganii DY-1; settings: Morganella morganii, DY1, 17 h; M. morganii DY-1; agar dilution, Mueller-Hinton agar; read-out: Minimal Inhibitory Concentration (MIC)
Procedure, shortened: as §1

Prov. stuartii IFO 12930 = assay: MIC by agar dilution, Prov. stuartii IFO 12930; settings: Providencia stuartii, IFO12930, 17 h, Mueller-Hinton agar, read-out: Minimal Inhibitory Concentration (MIC)
Procedure, shortened: as §1

E. coli NIHJ JC-2 = assay: MIC by agar dilution, E. coli NIHJ JC-2; settings: Escherichia coli, NIHJJC2, 17 h; E. coli NIHJ JC-2; agar dilution, Mueller-Hinton agar; read-out: Minimal Inhibitory Concentration (MIC)
Procedure, shortened: as §1

K. pneumoniae NCTC 9632 = assay: MIC by agar dilution, K. pneumoniae NCTC 9632; settings: Klebsiella pneumoniae, NCTC9632, 17 h; K. pneumoniae NCTC 9632; agar dilution, Mueller-Hinton agar; read-out: Minimal Inhibitory Concentration (MIC)
Procedure, shortened: as §1

E. coli DY-1 = assay: MIC by agar dilution, E. coli DY-1; settings: Escherichia coli, DY1, 17 h; E. coli DY-1; agar dilution, Mueller-Hinton agar; read-out: Minimal Inhibitory Concentration (MIC)
Procedure, shortened: as §1

P. vulgaris NCTC 8313 = assay: MIC by agar dilution, P. vulgaris NCTC 8313; settings: Proteus vulgaris, NCTC8313, 17 h; P. vulgaris NCTC 8313; agar dilution, Mueller-Hinton agar; read-out: Minimal Inhibitory Concentration (MIC)
Procedure, shortened: as §1

B. subtilis ATCC 6633 = assay: MIC by agar dilution, B. subtilis ATCC 6633; settings: Bacillus subtilis, ATCC6633, 17 h; B. subtilis ATCC 6633; agar dilution, Mueller-Hinton agar; read-out: Minimal Inhibitory Concentration (MIC)
Procedure, shortened: as §1

MIC (Staph. aureus C-57) [µg/mL] | MIC (Staph. aureus C-5113) [µg/mL] | MIC (E. coli No. 29) [µg/mL] | MIC [1] [µg/mL] | MIC (Ent. aerogenes IFO 12979) [µg/mL] | MIC (Ps. aeruginosa DY-2) [µg/mL] | MIC (Staph. aureus Smith) [µg/mL] | MIC [2] [µg/mL] | MIC (Staph. aureus C-5216) [µg/mL] | MIC [3] [µg/mL] | MIC [4] [µg/mL] | MIC (Staph. aureus ATCC 6538P) [µg/mL] | MIC (Ent. cloacae IFO 13535) [µg/mL] | MIC (M. morganii DY-1) [µg/mL] | MIC (Prov. stuartii IFO 12930) [µg/mL] | MIC (E. coli NIHJ JC-2) [µg/mL] | MIC (K. pneumoniae NCTC 9632) [µg/mL] | MIC (E. coli DY-1) [µg/mL] | MIC (P. vulgaris NCTC 8313) [µg/mL] | MIC (B. subtilis ATCC 6633) [µg/mL] | SMILES
12.5 (≈ 23 µM) | 1.56 (≈ 2.86 µM) | ≤ 0.006 | 0.05 (≈ 0.0918 µM) | ≤ 0.006 | 1.56 (≈ 2.86 µM) | 0.78 (≈ 1.43 µM) | 0.78 (≈ 1.43 µM) | 0.78 (≈ 1.43 µM) | 0.1 (≈ 0.184 µM) | 0.012 (≈ 0.022 µM) | 0.39 (≈ 0.716 µM) | 0.05 (≈ 0.0918 µM) | 0.012 (≈ 0.022 µM) | ≤ 0.006 | ≤ 0.006 | 0.012 (≈ 0.022 µM) | ≤ 0.006 | 0.012 (≈ 0.022 µM) | 0.1 (≈ 0.184 µM) | CO/N=C(\C(=O)N[C@@H]1C(=O)N2C(C(=O)[O-])=C(C[n+]3ccn4c(CO)ccc4c3)CS[C@H]12)c1nsc(N)n1 [Ex. 50, 7-β-[(Z)-2-(5-amino-1,2,4-thiadiazol-3-yl)-2-methoxyiminoacetamido]-3-(6-hydroxymethylpyrrolo[1,2-a]-pyrazinium-2-yl)methyl-3-cephem-4-carboxylate]
50 (≈ 89.5 µM) | 1.56 (≈ 2.79 µM) | 0.025 (≈ 0.0448 µM) | 0.1 (≈ 0.179 µM) | 0.025 (≈ 0.0448 µM) | 3.13 (≈ 5.6 µM) | 1.56 (≈ 2.79 µM) | 1.56 (≈ 2.79 µM) | 1.56 (≈ 2.79 µM) | 0.2 (≈ 0.358 µM) | 0.05 (≈ 0.0895 µM) | 0.78 (≈ 1.4 µM) | 0.1 (≈ 0.179 µM) | 0.1 (≈ 0.179 µM) | 0.012 (≈ 0.0215 µM) | 0.025 (≈ 0.0448 µM) | 0.05 (≈ 0.0895 µM) | 0.025 (≈ 0.0448 µM) | 0.05 (≈ 0.0895 µM) | 0.2 (≈ 0.358 µM) | CO/N=C(\C(=O)N[C@@H]1C(=O)N2C(C(=O)[O-])=C(C[n+]3ccn4c(C(C)O)ccc4c3)CS[C@H]12)c1nsc(N)n1 (stereo partly drawn) [Ex. 51, 7-β-[(Z)-2-(5-amino-1,2,4-thiadiazol-3-yl)-2-methoxyiminoacetamido]-3-[6-(1-hydroxyethyl)pyrrolo[1,2-a]-pyrazinium-2-yl]methyl-3cephem-4-carboxylate]
6.25 (≈ 10 µM) | 1.56 (≈ 2.5 µM) | 0.1 (≈ 0.16 µM) | 0.1 (≈ 0.16 µM) | 0.1 (≈ 0.16 µM) | 12.5 (≈ 20 µM) | 1.56 (≈ 2.5 µM) | 1.56 (≈ 2.5 µM) | 0.78 (≈ 1.25 µM) | 1.56 (≈ 2.5 µM) | 0.2 (≈ 0.32 µM) | 0.2 (≈ 0.32 µM) | 0.78 (≈ 1.25 µM) | 0.2 (≈ 0.32 µM) | 0.025 (≈ 0.0401 µM) | 0.2 (≈ 0.32 µM) | 0.1 (≈ 0.16 µM) | 0.025 (≈ 0.0401 µM) | 0.012 (≈ 0.0192 µM) | 0.1 (≈ 0.16 µM) | CO/N=C(\C(=O)N[C@@H]1C(=O)N2C(C(=O)[O-])=C(C[n+]3ccn4c(SCCO)ccc4c3)CS[C@H]12)c1nc(N)sc1Cl [Ex. 52, 7-β-[(Z)-2-(2-amino-5-chlorothiazol-4-yl)-2-methoxyiminoacetamido]-3-[6-(2-hydroxyethylthio)pyrrolo[1,2-a]-pyrazinium-2-yl]methyl-3-cephem-4-carboxylate]
25 (≈ 42.3 µM) | 3.13 (≈ 5.3 µM) | 0.05 (≈ 0.0846 µM) | 3.39 (≈ 5.74 µM) | 0.025 (≈ 0.0423 µM) | 6.25 (≈ 10.6 µM) | 3.13 (≈ 5.3 µM) | 0.78 (≈ 1.32 µM) | 3.13 (≈ 5.3 µM) | 0.78 (≈ 1.32 µM) | 0.05 (≈ 0.0846 µM) | 0.78 (≈ 1.32 µM) | 0.1 (≈ 0.169 µM) | 0.05 (≈ 0.0846 µM) | 0.025 (≈ 0.0423 µM) | 0.025 (≈ 0.0423 µM) | 0.025 (≈ 0.0423 µM) | 0.025 (≈ 0.0423 µM) | 0.1 (≈ 0.169 µM) | 0.2 (≈ 0.339 µM) | CO/N=C(\C(=O)N[C@@H]1C(=O)N2C(C(=O)[O-])=C(C[n+]3ccn4c(SCCO)ccc4c3)CS[C@H]12)c1nsc(N)n1 [Ex. 53, 7-β-[(Z)-2-(5-amino-1,2,4-thiadiazol-3-yl)-2-methoxyiminoacetamido]-3-[6-(2-hydroxyethylthio)pyrrolo[1,2-a]-pyrazinium-2-yl]methyl-3-cephem-4-carboxylate]

From patent US5593984A, “Cephalosporin derivatives” (Yuhan Corporation, priority 1992, dated 1997)
